The target of assay [1] is T1, wild-type human B2R with wild-type Gq (Homo sapiens, UniProt P30411).
T1 construct: expressed in transfected cells; host or cells: CHO cells
As to the kind of experiment: Calcium mobilization, CHO cells, WT-B2R & WT-Gq (Calcium-5 kit, Flexstation 3, ex 485/em 525 nm). In kind it is cell-based. Particulars: kallidin-induced calcium mobilization, Mean±S.E.M. from three independent experiments. The procedure:
(§1) CHO cells transfected with wild-type or mutated B2R and wild-type or mutated Gq were seeded into 96-well black plates at a density of 30,000 cells per well and incubated for 24 h. Then cells were loaded with reagents from Calcium-5 Assay Kit (Molecular Devices) for 45 min at 37 °C in 5% CO2 according to the manufacturer’s protocol. […] Data were analyzed by GraphPad Prism 5 and presented as Mean ± S.E.M. from three independent experiments.
Supplementary Table 1 . Calcium mobilization results of WT and mutated constructs. Emax and pEC50 values were presented as Mean±S.E.M. from three independent experiments. Source data are provided as a Source Data file.
Supplementary Table 3. […] Emax and […]
(§2) pEC50 values were presented as Mean±S.E.M. from three independent experiments.
(§3) NA represented not available. Source data are provided as a Source Data file.
For orientation: Calcium assays in cells follow changes in intracellular calcium, usually with a dye or a luminescent sensor.

Assay [2] concerns the target T2, wild-type human B2R with CryoEM Gq (R183Q, Q209L) (Homo sapiens, UniProt P30411).
T2 construct: expressed in transfected cells; host or cells: CHO cells
T2 sequence (P30411 1-391): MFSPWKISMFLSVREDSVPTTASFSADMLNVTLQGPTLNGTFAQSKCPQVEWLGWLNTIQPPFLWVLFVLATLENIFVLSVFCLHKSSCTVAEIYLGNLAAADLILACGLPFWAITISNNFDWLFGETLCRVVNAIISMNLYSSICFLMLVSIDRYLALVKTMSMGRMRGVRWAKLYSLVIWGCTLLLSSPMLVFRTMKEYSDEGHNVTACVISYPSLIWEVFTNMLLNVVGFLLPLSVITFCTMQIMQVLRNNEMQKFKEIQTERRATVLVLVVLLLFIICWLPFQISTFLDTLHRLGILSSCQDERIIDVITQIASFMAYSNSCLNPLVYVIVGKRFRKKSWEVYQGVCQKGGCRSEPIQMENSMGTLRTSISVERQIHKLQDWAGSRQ
As to the kind of experiment: Calcium mobilization, CHO cells, WT-B2R & CryoEM-Gq. Particulars: kallidin-induced calcium mobilization, Mean±S.E.M. from three independent experiments. In kind it is cell-based. How it is done: (§4) There was a 10xHis tag at the N-terminus of each subunit.
as §1
(§5) Supplementary Table 1 . Calcium mobilization results of WT and mutated
(§6) constructs. Emax and pEC50 values were presented as Mean±S.E.M. from three
(§7) independent experiments. Source data are provided as a Source Data file.

The target in assay [3] is T3, CryoEM B2R (MBP fusion) with CryoEM Gq (R183Q, Q209L) (Homo sapiens, UniProt P30411).
T3 construct: HA tag (N); 10xHis tag + TEV site (N); expressed in transfected cells; host or cells: CHO cells
T3 sequence (P30411 29-391): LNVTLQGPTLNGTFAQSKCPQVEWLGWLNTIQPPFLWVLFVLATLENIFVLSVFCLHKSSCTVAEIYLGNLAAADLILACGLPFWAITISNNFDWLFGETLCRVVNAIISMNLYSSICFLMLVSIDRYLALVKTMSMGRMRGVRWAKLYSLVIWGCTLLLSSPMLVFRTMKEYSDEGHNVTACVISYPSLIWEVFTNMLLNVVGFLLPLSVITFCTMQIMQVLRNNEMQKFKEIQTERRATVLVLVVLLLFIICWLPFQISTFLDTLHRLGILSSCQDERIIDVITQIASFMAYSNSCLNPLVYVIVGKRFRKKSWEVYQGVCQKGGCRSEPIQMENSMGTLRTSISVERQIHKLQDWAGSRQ
T3 sequence (P50148 1-359 R183Q/Q209L partner): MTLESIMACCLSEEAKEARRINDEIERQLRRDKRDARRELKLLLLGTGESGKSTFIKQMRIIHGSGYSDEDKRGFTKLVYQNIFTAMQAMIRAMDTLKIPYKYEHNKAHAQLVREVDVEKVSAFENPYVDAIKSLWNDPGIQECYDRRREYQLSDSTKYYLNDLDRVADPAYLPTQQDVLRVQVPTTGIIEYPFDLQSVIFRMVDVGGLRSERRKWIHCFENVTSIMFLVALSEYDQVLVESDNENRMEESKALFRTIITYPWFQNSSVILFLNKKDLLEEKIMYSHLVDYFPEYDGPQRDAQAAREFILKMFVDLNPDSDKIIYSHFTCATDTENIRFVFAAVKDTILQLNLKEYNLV
As to the kind of experiment: Calcium mobilization, CHO cells, CryoEM-B2R & CryoEM-Gq. The class given is cell-based. The note with it: kallidin-induced calcium mobilization, Mean±S.E.M. from three independent experiments. The procedure:
as §4, §1, §5, §6, §7

The target of another assay is T4, B2R W113A (Homo sapiens, UniProt P30411, W113A).
T4 construct: expressed in transfected cells; host or cells: CHO cells
The assay can be described thus: Calcium mobilization, CHO cells, B2R W113A. The class given is cell-based. The procedure: as §1
(§8) Supplementary Table 3. […] Emax and
as §2, §3

The target of the next assay is T5, B2R F121A (Homo sapiens, UniProt P30411, F121A).
T5 construct: expressed in transfected cells; host or cells: CHO cells
As to the kind of experiment: Calcium mobilization, CHO cells, B2R F121A. In kind it is cell-based. How it is done:
as §1, §8, §2, §3

In a further assay the target is T6, B2R Y201A (Homo sapiens, UniProt P30411, Y201A).
T6 construct: expressed in transfected cells; host or cells: CHO cells
T6 sequence (P30411 whole entry Y201A): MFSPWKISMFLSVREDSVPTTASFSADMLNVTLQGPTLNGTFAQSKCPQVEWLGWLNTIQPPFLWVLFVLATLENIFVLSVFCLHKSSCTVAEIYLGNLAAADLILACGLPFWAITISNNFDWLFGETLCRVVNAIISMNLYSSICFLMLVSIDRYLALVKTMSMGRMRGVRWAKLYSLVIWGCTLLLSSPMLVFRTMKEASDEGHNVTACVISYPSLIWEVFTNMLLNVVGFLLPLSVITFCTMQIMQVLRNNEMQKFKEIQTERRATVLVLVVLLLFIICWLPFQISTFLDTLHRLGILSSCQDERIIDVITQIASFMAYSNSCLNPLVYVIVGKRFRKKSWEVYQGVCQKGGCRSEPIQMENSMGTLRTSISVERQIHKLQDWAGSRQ
T6 sequence (P50148 whole entry partner): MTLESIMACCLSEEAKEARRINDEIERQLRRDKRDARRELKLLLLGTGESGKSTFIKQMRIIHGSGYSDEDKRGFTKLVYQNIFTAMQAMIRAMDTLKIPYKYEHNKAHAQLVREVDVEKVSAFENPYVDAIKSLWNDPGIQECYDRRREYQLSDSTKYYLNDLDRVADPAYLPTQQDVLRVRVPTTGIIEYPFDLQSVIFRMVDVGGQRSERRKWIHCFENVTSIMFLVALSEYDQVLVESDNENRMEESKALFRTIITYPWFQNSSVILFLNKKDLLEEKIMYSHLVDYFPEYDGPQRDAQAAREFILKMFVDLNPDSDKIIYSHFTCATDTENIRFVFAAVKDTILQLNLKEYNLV
T6 sequence (P62873 2-340 partner limits assumed): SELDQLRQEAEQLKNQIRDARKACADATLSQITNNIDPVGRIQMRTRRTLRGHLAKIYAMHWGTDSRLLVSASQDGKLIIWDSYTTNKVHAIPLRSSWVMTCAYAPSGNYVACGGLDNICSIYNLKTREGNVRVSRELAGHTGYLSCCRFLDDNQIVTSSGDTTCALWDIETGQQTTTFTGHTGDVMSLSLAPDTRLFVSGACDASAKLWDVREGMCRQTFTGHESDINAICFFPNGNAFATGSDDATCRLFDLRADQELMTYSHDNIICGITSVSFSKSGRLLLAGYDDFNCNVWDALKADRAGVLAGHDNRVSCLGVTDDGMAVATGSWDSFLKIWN
T6 sequence (P59768 2-68 partner limits assumed): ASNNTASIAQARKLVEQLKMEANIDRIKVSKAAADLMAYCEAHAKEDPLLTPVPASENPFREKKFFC
As to the kind of experiment: Calcium mobilization, CHO cells, B2R Y201A. In kind it is cell-based. The procedure: as §1, §8, §2, §3

The target of a further assay is T7, B2R F286A (Homo sapiens, UniProt P30411, F286A).
T7 construct: expressed in transfected cells; host or cells: CHO cells
The assay can be described thus: Calcium mobilization, CHO cells, B2R F286A. In kind it is cell-based. How it is done: as §1, §8, §2, §3

The target in the next assay is T8, B2R R297A (Homo sapiens, UniProt P30411, R297A).
T8 construct: expressed in transfected cells; host or cells: CHO cells
The assay can be described thus: Calcium mobilization, CHO cells, B2R R297A. In kind it is cell-based. The procedure:
as §1, §8, §2, §3

The next assay has as its target T9, B2R Y322A (Homo sapiens, UniProt P30411, Y322A).
T9 construct: expressed in transfected cells; host or cells: CHO cells
The assay can be described thus: Calcium mobilization, CHO cells, B2R Y322A. The class given is cell-based. The procedure:
as §1, §8, §2, §3

For the next assay, the target named is T10, B2R E204A (Homo sapiens, UniProt P30411, E204A).
T10 construct: expressed in transfected cells; host or cells: CHO cells
The assay can be described thus: Calcium mobilization, CHO cells, B2R E204A. The class given is cell-based. How it is done: as §1, §8, §2, §3

For the next assay, the target named is T11, B2R I213A (Homo sapiens, UniProt P30411, I213A).
T11 construct: expressed in transfected cells; host or cells: CHO cells
As to the kind of experiment: Calcium mobilization, CHO cells, B2R I213A. In kind it is cell-based. How it is done: as §1, §8, §2, §3

A further assay has as its target T12, B2R S289A (Homo sapiens, UniProt P30411, S289A).
T12 construct: expressed in transfected cells; host or cells: CHO cells
The assay can be described thus: Calcium mobilization, CHO cells, B2R S289A. The class given is cell-based. How it is done:
as §1, §8, §2, §3

A further assay concerns the target T13, B2R T290A (Homo sapiens, UniProt P30411, T290A).
T13 construct: expressed in transfected cells; host or cells: CHO cells
As to the kind of experiment: Calcium mobilization, CHO cells, B2R T290A. In kind it is cell-based. The procedure:
as §1, §8, §2, §3

For another assay, the target named is T14, B2R D293A (Homo sapiens, UniProt P30411, D293A).
T14 construct: expressed in transfected cells; host or cells: CHO cells
The assay can be described thus: Calcium mobilization, CHO cells, B2R D293A. In kind it is cell-based. How it is done:
as §1, §8, §2, §3

The target of the next assay is T15, B2R D311A (Homo sapiens, UniProt P30411, D311A).
T15 construct: expressed in transfected cells; host or cells: CHO cells
T15 sequence (P30411 whole entry D311A): as the sequence (P30411 whole entry Y201A) above, with A201Y, D311A counted along it
T15 sequence (P50148 whole entry partner): as the sequence (P50148 whole entry partner) above
T15 sequence (P62873 2-340 partner limits assumed): as the sequence (P62873 2-340 partner limits assumed) above
T15 sequence (P59768 2-68 partner limits assumed): as the sequence (P59768 2-68 partner limits assumed) above
As to the kind of experiment: Calcium mobilization, CHO cells, B2R D311A. In kind it is cell-based. The procedure:
as §1, §8, §2, §3

Another assay concerns the target T16, B2R Q315A (Homo sapiens, UniProt P30411, Q315A).
T16 construct: expressed in transfected cells; host or cells: CHO cells
As to the kind of experiment: Calcium mobilization, CHO cells, B2R Q315A. The class given is cell-based. How it is done:
as §1, §8, §2, §3

The next assay has as its system B2R. Particulars: cited from earlier work. From the text:
The kallikrein-kinin system (KKS) consists of kininogens, kallikrein enzymes, kinins, type 1 and type 2 bradykinin receptors (B1R and B2R), which plays important roles in vasodilation, inflammation, vascular permeability, cardioprotection, coagulation, and pain[1]–[4]. Kinins are short-lived peptides of various lengths and they are produced by enzymatic hydrolysis of precursor kininogens. […] Both kinins ...

One may read the EC50 as the concentration needed to bring the measured effect to its halfway point.

T9 sequence (P30411 whole entry Y322A): as the sequence (P30411 whole entry Y201A) above, with A201Y, Y322A counted along it
T9 sequence (P50148 whole entry partner): as the sequence (P50148 whole entry partner) above
T9 sequence (P62873 2-340 partner limits assumed): as the sequence (P62873 2-340 partner limits assumed) above
T9 sequence (P59768 2-68 partner limits assumed): as the sequence (P59768 2-68 partner limits assumed) above
T1 sequence (P50148 whole entry partner, one chain of several): as the sequence (P50148 whole entry partner) above
T1 sequence (P62873 2-340 partner limits assumed, one chain of several): as the sequence (P62873 2-340 partner limits assumed) above
T1 sequence (P59768 2-68 partner limits assumed, one chain of several): as the sequence (P59768 2-68 partner limits assumed) above

As for `NCCCC[C@H](N)C(=O)N[C@@H](CCCN=C(N)N)C(=O)N1CCC[C@H]1C(=O)N1CCC[C@H]1C(=O)NCC(=O)N[C@@H](Cc1ccccc1)C(=O)N[C@@H](CO)C(=O)N1CCC[C@H]1C(=O)N[C@@H](Cc1ccccc1)C(=O)N[C@@H](CCCN=C(N)N)C(=O)O` [kallidin], the EC50 in assay [1] was 0.753 nM; in assay [2] it was 2.39 nM; in assay [3], 6.67 nM; at B2R W113A it was 1050 nM; at B2R F121A, 774 nM; at B2R Y201A, 92.9 nM. Besides, the EC50 on B2R F286A was 112 nM; at B2R R297A, 1.62 nM; on B2R Y322A, 21.5 nM; at B2R E204A it was 13 nM; at B2R I213A, 110 nM; on B2R S289A, 1.38 nM. For the same compound, the EC50 was 23.7 nM at B2R T290A, 5.38 nM at B2R D293A, 16.7 nM on B2R D311A and 66.7 nM at B2R Q315A.
With “D-Arg-Arg-Pro-Hyp-Gly-Thi-Ser-D-Tic-Oic-Arg [icatibant]”, in the assay with B2R, the “antagonist class at B2R” value was “B2R selective antagonist”.

Source of the values: paper PMC8821558, “Cryo-EM structures of human bradykinin receptor-Gq proteins complexes” (Nature Communications, 2022).
